This is an account of results in patent US7521563B2, “Hydroxamic acid derivative and medicine containing the same as active ingredient” (Shizuoka Coffein Co., Ltd., priority 2004, dated 2009).

Data set [1] deals with IL-6 production. As to the kind of experiment: IL-6 production suppression test in LPS-stimulated PMA-differentiated THP-1 cells (ELISA). The format is cell-based, Human. The settings on record: for IL-6 production suppression rate (%): THP-1 cells, LPS 1 μg/mL, 24 hours. As to the method: (§1) Tests were conducted with reference to the method by G. Lozanski et al. (J. Rheumatol., Vol. 19, 921-926, 1992).
(§2) Using a 10% fetal calf serum (FCS)-added PRMI-1640 medium, THP-1 cells (Dainippon Pharmaceutical Co., Ltd.) were prepared in an amount of 10^6/mL, and inoculated on a 48-well microplate in an amount of 500 μL per well. 10^−8 M of phorbol 12-myristate 13-acetate (PMA) was added to the wells, and the cells were cultured for 24 hours to induce differentiation of the cells to macrophages.
(§3) 50 μL of test substance diluting liquid or DMSO diluting liquid was added to the wells, and the cells were preincubated by a CO2 incubator at 37° C. for 30 minutes. 5 μL of LPS (111 μg/mL) (final concentration: 1 μg/mL) was added to each well. Furthermore, wells with no LPS added to the DMSO diluting liquid were set. After the cells were cultured for 24 hours, they were centrifuged to take cell supernatants, and the IL-6 level was measured using the Human IL-6 ELISA kit (Biosource International), and TNFα was measured using the Human tumor necrosis factor-α ELISA kit (Biosource International), by the enzyme-linked immunosorbent assay (ELISA).

In data set [2] the test system is THP-1 cells. As to the kind of experiment: Evaluation of cytotoxicity by the MTT method. The format is cell-based. The settings on record: DMSO well = 100%. As for the experimental part:
Cytotoxicity was evaluated by the MTT method.
Specifically, a 0.5 mg/mL solution of 3-(4,5-dimethyl-2-thiazolyl)-2,5-diphenyl-2H-tetrazolium bromide (MTT, Sigma) prepared in a 10% fetal calf serum (FCS)-added PRMI-1640 medium was added in an amount of 100 μL per well to cells with culture supernatants removed in test example 1, and the cells were cultured for 3 hours. The culture solution was removed by centrifugal separation, 100 μL of methanol was added to each well, and the absorbance was measured at a wavelength of 570 nm after cytolysis.
The absorbances for the well to which the DMSO diluting liquid was added and the well to which no LPS was added are 100% and 0%, respectively, the absorbances for wells of different doses of test substances are expressed as percentages, and the results are shown in Table 4.

Data set [3] relates to TNFα production. The data set can be described thus: TNFα production suppression test in LPS-stimulated PMA-differentiated THP-1 cells (ELISA). Particulars: for TNFα production suppression rate (%): THP-1 cells, LPS 1 μg/mL, 24 hours. It counts as cell-based, Human. As to the method: as §1, §2, §3
On the technique in general: An ELISA detects its analyte on a solid surface through an enzyme-linked reagent.

The mark [4] stands for this setting: active concentration 1 × 10^−7 M.
Where [5] appears, read: concentration 1 × 10^−9 M (first column).
Where [6] appears, read: concentration 1 × 10^−9 M (second column, as printed).
The mark [7] stands for this setting: active concentration 1 × 10^−6 M.
Where [8] appears, read: range of concentrations 1×10^−5-−9 M.

Each structure is given as a SMILES string.

For the molecule `O=C(CCCCCCc1nc(-c2ccccc2)c(-c2ccccc2)o1)NO` [Example 24, N-hydroxy-4,5-diphenyl-2-oxazoleheptanamide], the “IL-6 production suppression rate (%)” value in data set [1] (setting [4]) was found to be 50%. For the same molecule, the “Cytotoxicity test: absorbance (570 nm, MTT) expressed as percentage” value (“Cytotoxicity test: absorbance … as percentage” for short) in data set [2] (concentration 1 × 10^−5 M) is given as 83.8%; in data set [2] (concentration 1 × 10^−6 M), 91.8%; in data set [2] (concentration 1 × 10^−7 M), 88.1%; in data set [2] (setting [5]) it was 96.4%; in data set [2] (setting [6]), 83.9%.

Consider `O=C(CCCCCc1nc(-c2ccccc2)c(-c2ccc(F)cc2)s1)NO` [Example 8, 5-(4-fluorophenyl)-N-hydroxy-4-phenyl-2-thiazolehexanamide], for which, in data set [3] (setting [7]), the “TNFα production suppression rate (%)” value was found to be 40%. Besides, the “Cytotoxicity test: absorbance … as percentage” value in data set [2] (concentration 1 × 10^−5 M) was 88.9%; in data set [2] (concentration 1 × 10^−6 M), 113.7%; in data set [2] (concentration 1 × 10^−7 M) it was 106.7%; in data set [2] (setting [5]), 106.7%; in data set [2] (setting [6]), 105.3%.

On to `O=C(O)CCCCCc1nc(-c2ccccc2)c(-c2ccccc2)o1` [4,5-diphenyl-2-oxazolehexanoic acid, reference compound], for which, in data set [1] (setting [8]), the “IL-6 production suppressing activity” value was “no activity”. In data set [3] (setting [8]), the “TNFα production suppressing activity” value is “no activity”.

Consider `O=C(CCCCCc1nc(-c2ccccc2)c(-c2ccccc2)o1)NO` [Example 25, N-hydroxy-4,5-diphenyl-2-oxazolehexanamide], for which the “IL-6 production suppression rate (%)” value in data set [1] (setting [4]) came out at 50%. The “Cytotoxicity test: absorbance … as percentage” value was 78.9% in data set [2] (concentration 1 × 10^−5 M); 83.6% in data set [2] (concentration 1 × 10^−6 M); 87.6% in data set [2] (concentration 1 × 10^−7 M); 85.8% in data set [2] (setting [5]); 91.9% in data set [2] (setting [6]).

Consider `O=C(CCCCCc1ncc(-c2ccc(Br)cc2)s1)NO` [Example 20, 5-(4-bromophenyl)-N-hydroxy-2-thiazolehexanamide], for which the “IL-6 production suppression rate (%)” value in data set [1] (setting [7]) turned out to be 64%. Also, in data set [3] (setting [4]), the “TNFα production suppression rate (%)” value amounted to 44%. Further, the “Cytotoxicity test: absorbance … as percentage” value was 82.3% in data set [2] (concentration 1 × 10^−5 M); 97.6% in data set [2] (concentration 1 × 10^−6 M); 102.0% in data set [2] (concentration 1 × 10^−7 M); 95.6% in data set [2] (setting [5]); 104.0% in data set [2] (setting [6]).
